Reference: patent US11285135B2 (AMGEN INC., priority 2016, dated 2022)

What was measured:
[1] = molecular target: GDP-bound BRAS protein (aa 1-169), containing both G12C and C118A amino acid substitutions (Homo sapiens, UniProt P01116, C118A/G12C); test: Coupled Nucleotide Exchange Assay (SOS-mediated nucleotide exchange, AlphaScreen); format: biochemical; conditions: 2 hours compound pre-incubation
In short: (§1)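 His-tagged GDP-bound […] (aa 1-169, G12C/C118A) pre-incubated 2 h with compound titration in 25 mM HEPES pH 7.4, 10 mM MgCl2, 0.01% Triton X-100.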

[2] = molecular target: GDP-bound protein (aa 1-169), containing both G12C and C118A amino acid substitutions (Homo sapiens, UniProt P01116, C118A/G12C); test: as above; format: biochemical; conditions: 2 hours compound pre-incubation
Chain of GDP-bound protein (aa 1-169), containing both G12C and C118A amino acid substitutions (P01116 1-169 isoform P01116-2 G12C/C118A): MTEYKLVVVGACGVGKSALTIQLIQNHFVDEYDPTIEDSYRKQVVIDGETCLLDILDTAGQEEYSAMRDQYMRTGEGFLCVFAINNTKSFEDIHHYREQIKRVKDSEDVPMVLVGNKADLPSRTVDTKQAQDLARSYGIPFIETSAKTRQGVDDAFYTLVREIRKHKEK
In short: as §1

[3] = test system: Phosphorylation of ERK½ in MIA PaCa-2 cells; test: Phospho-ERK½ MSD Assay in MIA PaCa-2 cells; format: cell-based; conditions: Homo sapiens, MIA PaCa-2, MIA PaCa-2 cells; 4 hours compound treatment; 10 ng/mL EGF for 10 min; read-out: p-ERK IC50 (MIA PaCa-2)
In short: (§2)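 MIA PaCa-2 or A549 cells (25,000/well, RPMI with 10% FBS) exposed to compound titration for 4 h at 37 °C, then stimulated with 10 ng/mL EGF for 10 min and lysed in RIPA. Phospho-ERK1/2 quantified by MSD whole-cell lysate immunoassay; IC50 from 4-parameter logistic fit.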

[4] = test system: Phosphorylation of ERK½ in A549 cells; test: Phospho-ERK½ MSD Assay in A549 cells; format: cell-based; conditions: Homo sapiens, A549, A549 cells; 4 hours compound treatment; 10 ng/mL EGF for 10 min; read-out: p-ERK IC50 (A549)
In short: as §2

Chain of GDP-bound BRAS protein (aa 1-169), containing both G12C and C118A amino acid substitutions (P01116 1-169 isoform P01116-2 G12C/C118A): as above

Compound	IC50 [1]	Coupled exchange IC50 [2]	IC50 [3]	IC50 [4]
C=CC(=O)N1CCN(c2nc(=O)n(-c3ccccc3C(C)C)c3cc(Br)c(Cl)cc23)[C@@H](C)C1 [Example 9-2, 7-bromo-6-chloro-4-((2S)-2-methyl-4-(2-propenoyl)-1-piperazinyl)-1-(2-(2-propanyl)phenyl)-2(1H)-quinazolinone]	0.289 µM			
C=CC(=O)N1CCN(c2nc(=O)n([C@H]3CCCCC3(C)C)c3nc(-c4c(O)cccc4F)c(Cl)cc23)CC1 (racemic) [Example 9-14, 6-chloro-1-((1R)-2,2-dimethylcyclohexyl)-7-(2-fluoro-6-hydroxyphenyl)-4-(4-(2-propenoyl)-1-piperazinyl)pyrido[2,3-d]pyrimidin-2(1H)-one|6-chloro-1-((1S)-2,2-dimethylcyclohexyl)-7-(2-fluoro-6-hydroxyphenyl)-4-(4-(2-propenoyl)-1-piperazinyl)pyrido[2,3-d]pyrimidin-2(1H)-one]		0.129 µM	0.344 µM	> 100 µM
C=CC(=O)N1CCN(c2nnc(-c3ccccc3Cl)c3cc(-c4c(O)cccc4F)c(Cl)cc23)CC1 [Example 10-11, 1-(4-(7-chloro-4-(2-chlorophenyl)-6-(2-fluoro-6-hydroxyphenyl)-1-phthalazinyl)-1-piperazinyl)-2-propen-1-one]		0.516 µM	14.7 µM	> 100 µM
C=CC(=O)N1CCN(c2snc3cc(-c4c(O)cccc4F)c(Cl)cc23)CC1 [Example 1-6, 1-(4-(5-chloro-6-(2-fluoro-6-hydroxyphenyl)-2,1-benzothiazol-3-yl)-1-piperazinyl)-2-propen-1-one]		2.88 µM	36.2 µM	> 100 µM
